Test results reported in US11547681B2, “N-acylethanolamide derivatives and uses thereof” (ELIEM THERAPEUTICS, INC., priority 2016, dated 2023).

Tests used:
patients with pain = conditions: meta-analysis of 12 PEA pain studies; placebo 21%; cited from earlier work
[1] = Pharmacokinetics of PEA after intravenous administration in male Sprague-Dawley rats; assay type: in vivo, Sprague-Dawley rat; conditions: for AUC(0-t): AUClast; for MRT last: MRTlast
Protocol: Rats were housed one per cage. […] Each study group was dosing in triplicate.
Samples were maintained chilled throughout processing.
Clearance (CL) was calculated from dose/AUC.

in vivo = conditions: male, Sprague-Dawley, rat, plasma, po, 10 mg/kg
Protocol: PEA was also dosed intravenously at 1 mg/kg. Blood samples were collected up to 8 hours post-dose, and PEA and PEA-prodrug plasma concentrations were determined with a qualified LC-MS/MS method. Pharmacokinetic analysis was conducted by a non-compartmental model using Phoenix WinNonlin v.6.4 software.
The IV dosing solution was prepared fresh on the day of dosing at 0.5 mg/mL in a vehicle comprised of 10% solutol HS15, 10% n-methylpyrrolidone (NMP), 10% polyethylene glycol 400 (PEG400), and 70% water. For PO dosing, torpac capsules were loaded with an appropriate amount of PEA, PEA-prodrug, or normast powder. […] The prodrug dose in group 5 was the maximum amount of powder that would fit into a single capsule.
The pharmacokinetics of PEA and the PEA-prodrug were evaluated in fasted male Sprague-Dawley rats. Rats were housed one per cage. Each rat was fitted with a jugular vein cannula (JVC) for blood collection. Rats intended for IV dosing were fitted with an additional JVC for dosing. Each study group was dosing in triplicate. Rats were fasted for a minimum of twelve hours prior to dosing. Food was returned at four hours post dosing. Animals had free access to water throughout the study.
Blood samples (˜300 μL) were collected from the rats via a JVC and placed into chilled polypropylene tubes containing sodium heparin as an anticoagulant, and 30 μL of 0.5 M citric acid. Samples were maintained chilled throughout processing. Blood samples were centrifuged at 4° C. and 3,000 g for 5 minutes. Plasma (˜150 μL) was then transferred to a chilled, labeled polypropylene tube containing 15 μL of 10% formic acid, placed on dry ice, and stored in a freezer maintained at −60° C. to −80° C.
Pharmacokinetic parameters were determined with Phoenix WinNonlin (v6.4) software using a non-compartmental model. Maximum plasma concentrations (C0) after IV dosing were estimated by extrapolation of the first two time points back to t=0. […] Area under the time concentration curve (AUC) was calculated using the linear trapezoidal rule with calculation to the last quantifiable data point, and with extrapolation to infinity if applicable. […] Mean residence time, MRT, was calculated by dividing the area under the moment curve (AUMC) by the AUC. Clearance (CL) was calculated from dose/AUC. Steady-state volume of distribution (Vss) was calculated from CL*MRT (mean residence time). Bioavailability was determined by dividing the individual PO dose normalized AUClast values by the average IV AUClast value. Any samples below the limit of quantitation were treated as zero for pharmacokinetic data analysis.
Measured concentrations of PEA in plasma samples were corrected by subtracting the concentration of PEA measured in the pre-dose samples. […] Any corrected values that were negative are reported as not determined (ND).

[2] = male, Sprague-Dawley, rat, in vivo, iv, 1 mg/kg, Mean
[3] = male, Sprague-Dawley, rat, in vivo, iv, 1 mg/kg, individual rats
[4] = male, Sprague-Dawley, rat, in vivo, iv, 1 mg/kg, Plasma concentration of PEA, Mean
[5] = male, Sprague-Dawley, rat, in vivo, iv, 1 mg/kg, Plasma concentration of PEA, individual rats

## CCCCCCCCCCCCCCCC(=O)NCCO [PEA, palmitoylethanolamide]
Patients with pain
  treated patients achieving VAS scores <=3: 67%
[1]; PEA IV 1 mg/kg, extrapolated to t = 0
  C0, Mean: 251 ng/mL
[1]; male, Sprague-Dawley, rat, in vivo, iv, 1 mg/kg
  Tmax: 0 h
[1]; [2]
  AUC(0-t): 62.1 ng·h/mL
  AUC(0-inf): 68.4 ng·h/mL
  MRT last: 24.1 min
[1]; [3]
  AUC(0-t): 53.3 ng·h/mL
  AUC(0-inf): 57.6 ng·h/mL
  MRT last: 23.9 min
[1]; male, Sprague-Dawley, rat, in vivo, iv, 1 mg/kg, CL (average clearance rate), Mean
  clearance: 252 mL/min/kg
[1]; male, Sprague-Dawley, rat, in vivo, iv, 1 mg/kg, CL, individual rats
  clearance: 290 mL/min/kg
[1]; [4]
  concentration at 0.083 hr: 144 ng/mL
  concentration at 0.25 hr: 48.2 ng/mL
  concentration at 0.5 hr: 31.2 ng/mL
  concentration at 1 hr: 11.2 ng/mL
  concentration at 2 hr: 6.91 ng/mL
[1]; [5]
  concentration at 0.083 hr: 122 ng/mL
  concentration at 0.25 hr: 47.2 ng/mL
  concentration at 0.5 hr: 27.5 ng/mL
  concentration at 2 hr: 5.2 ng/mL
[1]; male, Sprague-Dawley, rat, in vivo, iv, 1 mg/kg, Vss (average volume of distribution), Mean
  Vd: 9.12 ± 0.832 L/kg
[1]; male, Sprague-Dawley, rat, in vivo, iv, 1 mg/kg, Vss, individual rats
  Vd: 10 L/kg
[1]; male, Sprague-Dawley, rat, in vivo, iv, 1 mg/kg, t1/2 (average half-life), Mean
  half-life: 35.8 ± 9.9 min
[1]; male, Sprague-Dawley, rat, in vivo, iv, 1 mg/kg, t1/2, individual rats
  half-life: 33.8 min
In vivo
  Cmax: 5.3 ng/mL
  Tmax: 120 min
  concentration at 1 hr: 2.34 ng/mL
  concentration at 2 hr: 5.3 ng/mL
